{"source": "patent US20090111736A1", "about": "“Orally-Absorbed Solid Dose Formulation for Vancomycin” (SRI International, priority 2007, published 2009)", "system": "rat jejunum", "test": "In vitro mucosal-to-serosal vancomycin transport, modified Ussing chambers, jejunum", "format": "in vitro ADME", "settings": "for Ave. Cumulative Amt VCM Released: jejunum", "description": "We investigated regional variation in permeation of vancomycin (VCM) across various segments of rat intestine and colon in vitro by mounting isolated segments of rat intestine and colon between horizontal modified Ussing chambers. The effects of drug concentration and of addition of a p-glycoprotein inhibitor or permeation enhancer(s) as formulation additives on VCM permeation were also studied in vitro using segments of rat jejunum.\nMethods: A modified Ussing system (Easy mount Ussing system, Physiological Instruments Inc., CA, Item # EM-CSYS-8) with eight sets of chambers was used for all in vitro studies; each set consisted of two parallel diffusion chambers, a heating block for temperature control, needle valves for gas flow adjustment and gas mixing, and Ag/AgCl voltage and current electrodes for measuring transepithelial voltage and for passing current.\nHarvesting of required small intestinal or colon segments of a male rat was performed using experimental procedures described in the literature (Gotoh et al., J Biomol Screen (2005) 10:517-23). The harvested segments of small intestine or colon were mounted on sliders placed between the two horizontal chambers of a modified Ussing system.\nVCM was dissolved in HEPES buffer pH 7.4 (Table 1) previously saturated with 100% O2 or HEPES buffer containing additives selected from permeation enhancer(s) and/or an efflux transport inhibitor (Table 2) to obtain predetermined concentrations of drug and additive(s).\nDrug transport across epithelial membranes of harvested rat small intestine and colon segments, in mucosal-to-serosal (M-to-S) direction, was studied using modified Ussing Chambers. Aliquots of HEPES buffer (5 ml) were initially added to both the mucosal and serosal chambers and allowed to equilibrate for 20 minutes. The HEPES buffer in the mucosal chamber was replaced by a study sample containing VCM alone or VCM and selected additive(s) in HEPES buffer, e.g., 5 mg/mL of VCM dissolved in HEPES buffer containing 10% w/w Labrasol®. Aliquots of 0.5 mL buffer solutions were removed periodically from serosal chambers, and replaced with equal volumes of fresh warm (37±2° C.) HEPES buffer previously saturated with 100% O2. […]\nChanges in transepithelial short-circuit current (in micro-Amps) and membrane resistance (in Ohms) as a function of time were monitored continuously during in vitro studies to serve as indicators of tissue viability and drug permeability, respectively. The buffer samples from the receptor chambers were analyzed for VCM content on a high pressure liquid chromatograph (HPLC; Hewlett Packard Model 1100 series).\nThe analysis of VCM samples was performed using a reverse phase gradient HPLC method, with a Hypersil BDS C18 column, 5 μm, 150×4.6 mm., mobile phase consisting of 5 mM potassium phosphate monobasic in water (pH 3) as solvent A and acetonitrile as solvent B at a flow rate of 1 ml/min (Farin et al., J Pharm Biomed Anal (1998) 18:367-72). The eluant was monitored by a UV/diode array detector at 280 nm.\nTo compare data obtained from different in vitro experiments, the apparent permeability coefficients were calculated using the equation: […]\nWhere dQ/dt is the linear appearance rate of mass in receiver compartment, C0 is the initial solute concentration in donor compartment, and A is the surface area (Luo et al., Drug Metab Dispos (2002) 30:763-70).", "note": "Where “and” joins values, the source holds several entries; their conditions need not be identical. Identical values can stand only once. Counter-ions that a name gives are not always drawn."}
{"compound": "CN[C@H](CC(C)C)C(=O)N[C@H]1C(=O)N[C@@H](CC(N)=O)C(=O)N[C@H]2C(=O)N[C@H]3C(=O)N[C@H](C(=O)N[C@H](C(=O)O)c4cc(O)cc(O)c4-c4cc3ccc4O)[C@H](O)c3ccc(c(Cl)c3)Oc3cc2cc(c3O[C@@H]2O[C@H](CO)[C@@H](O)[C@H](O)[C@H]2O[C@H]2C[C@](C)(N)[C@H](O)[C@H](C)O2)Oc2ccc(cc2Cl)[C@H]1O", "note": "[Vancomycin hydrochloride]", "values": [{"measurement": "increase in M-to-S transport of VCM", "setting": "0.15 mM Quinidine added to the serosal chamber", "result": 3, "unit": "fold"}, {"measurement": "effect on M-to-S transport of VCM", "setting": "0.15 mM Quinidine in mucosal chamber", "result": "increased M-to-S transport of VCM, but to a lesser extent"}, {"measurement": "effect on in vitro permeation of VCM", "setting": "1.0 mM sodium decanoate in mucosal chamber", "result": "much greater effect"}, {"measurement": "effect on in vitro permeation of VCM", "setting": "1.0 mM sodium decanoate in serosal chamber", "result": "minimal effect"}, {"measurement": "effect on M-to-S transport of VCM", "setting": "bile salts at 20% w/w in mucosal chamber", "result": "greatly enhanced M-to-S transport"}, {"measurement": "Ave. Cumulative Amt VCM Released", "setting": "1.0 mM sodium decanoate in mucosal chamber, 0.5 hr", "result": "2.24 ± 3.17", "unit": "µg"}, {"measurement": "Ave. Cumulative Amt VCM Released", "setting": "1.0 mM sodium decanoate in mucosal chamber, 1.0 hr", "result": "4.52 ± 6.39", "unit": "µg"}, {"measurement": "Ave. Cumulative Amt VCM Released", "setting": "1.0 mM sodium decanoate in mucosal chamber, 1.5 hr", "result": "11.11 ± 10.44", "unit": "µg"}, {"measurement": "Ave. Cumulative Amt VCM Released", "setting": "1.0 mM sodium decanoate in mucosal chamber, 2.0 hr", "result": "19.25 ± 14.42", "unit": "µg"}, {"measurement": "Ave. Cumulative Amt VCM Released", "setting": "1.0 mM sodium decanoate in mucosal chamber, 2.5 hr", "result": "34.10 ± 8.84", "unit": "µg"}, {"measurement": "Ave. Cumulative Amt VCM Released", "setting": "1.0 mM sodium decanoate in serosal chamber, 0.5 hr", "result": "0.00 ± 0.00", "unit": "µg"}, {"measurement": "Ave. Cumulative Amt VCM Released", "setting": "1.0 mM sodium decanoate in serosal chamber, 1.0 hr", "result": "0.91 ± 1.28", "unit": "µg"}, {"measurement": "Ave. Cumulative Amt VCM Released", "setting": "1.0 mM sodium decanoate in serosal chamber, 1.5 hr", "result": "3.91 ± 0.70", "unit": "µg"}, {"measurement": "Ave. Cumulative Amt VCM Released", "setting": "1.0 mM sodium decanoate in serosal chamber, 2.0 hr", "result": "6.91 ± 0.41", "unit": "µg"}, {"measurement": "Ave. Cumulative Amt VCM Released", "setting": "1.0 mM sodium decanoate in serosal chamber, 2.5 hr", "result": "10.60 ± 0.28", "unit": "µg"}, {"measurement": "Ave. Cumulative Amt VCM Released", "setting": "5 mg/ml vancomycin in HEPES buffer without enhancer, 0.5 hr, hydrochloride", "result": "0.00 ± 0.00 µg and 0.00 ± 0.0 µg"}, {"measurement": "Ave. Cumulative Amt VCM Released", "setting": "5 mg/ml vancomycin in HEPES buffer without enhancer, 1.0 hr", "result": "1.06 ± 0.95", "unit": "µg"}, {"measurement": "Ave. Cumulative Amt VCM Released", "setting": "5 mg/ml vancomycin in HEPES buffer without enhancer, 1.5 hr", "result": "3.73 ± 0.61", "unit": "µg"}, {"measurement": "Ave. Cumulative Amt VCM Released", "setting": "5 mg/ml vancomycin in HEPES buffer without enhancer, 2.0 hr", "result": "6.94 ± 1.07", "unit": "µg"}, {"measurement": "Ave. Cumulative Amt VCM Released", "setting": "5 mg/ml vancomycin in HEPES buffer without enhancer, 2.5 hr", "result": "11.08 ± 1.08", "unit": "µg"}, {"measurement": "Ave. Cumulative Amt VCM Released", "setting": "5 mg/ml, 0.15 mM Quinidine in mucosal chamber, 0.5 hr", "result": "0.00 ± 0.00", "unit": "µg"}, {"measurement": "Ave. Cumulative Amt VCM Released", "setting": "5 mg/ml, 0.15 mM Quinidine in mucosal chamber, 1.0 hr", "result": "1.72 ± 2.44", "unit": "µg"}, {"measurement": "Ave. Cumulative Amt VCM Released", "setting": "5 mg/ml, 0.15 mM Quinidine in mucosal chamber, 1.5 hr", "result": "4.91 ± 3.98", "unit": "µg"}, {"measurement": "Ave. Cumulative Amt VCM Released", "setting": "5 mg/ml, 0.15 mM Quinidine in mucosal chamber, 2.0 hr", "result": "9.00 ± 5.72", "unit": "µg"}, {"measurement": "Ave. Cumulative Amt VCM Released", "setting": "5 mg/ml, 0.15 mM Quinidine in mucosal chamber, 2.5 hr", "result": "14.14 ± 6.95", "unit": "µg"}, {"measurement": "Ave. Cumulative Amt VCM Released", "setting": "5 mg/ml, 0.15 mM Quinidine in serosal chamber, 0.5 hr", "result": "1.87 ± 0.57", "unit": "µg"}, {"measurement": "Ave. Cumulative Amt VCM Released", "setting": "5 mg/ml, 0.15 mM Quinidine in serosal chamber, 1.0 hr", "result": "8.27 ± 3.06", "unit": "µg"}, {"measurement": "Ave. Cumulative Amt VCM Released", "setting": "5 mg/ml, 0.15 mM Quinidine in serosal chamber, 1.5 hr", "result": "16.77 ± 7.45", "unit": "µg"}, {"measurement": "Ave. Cumulative Amt VCM Released", "setting": "5 mg/ml, 0.15 mM Quinidine in serosal chamber, 2.0 hr", "result": "26.75 ± 11.57", "unit": "µg"}, {"measurement": "Ave. Cumulative Amt VCM Released", "setting": "5 mg/ml, 0.15 mM Quinidine in serosal chamber, 2.5 hr", "result": "38.96 ± 12.27", "unit": "µg"}, {"measurement": "Ave. Cumulative Amt VCM Released", "setting": "5 mg/ml, slider area 0.5 cm^2, 20% w/w bile salt, 0.5 hr", "result": "0.00 ± 0.00", "unit": "µg"}, {"measurement": "Ave. Cumulative Amt VCM Released", "setting": "5 mg/ml, slider area 0.5 cm^2, 20% w/w bile salt, 1.0 hr", "result": "5.40 ± 2.26", "unit": "µg"}, {"measurement": "Ave. Cumulative Amt VCM Released", "setting": "5 mg/ml, slider area 0.5 cm^2, 20% w/w bile salt, 1.5 hr", "result": "18.19 ± 7.43", "unit": "µg"}, {"measurement": "Ave. Cumulative Amt VCM Released", "setting": "5 mg/ml, slider area 0.5 cm^2, 20% w/w bile salt, 2.0 hr", "result": "37.58 ± 9.54", "unit": "µg"}, {"measurement": "Ave. Cumulative Amt VCM Released", "setting": "5 mg/ml, slider area 0.5 cm^2, 20% w/w bile salt, 2.5 hr", "result": "66.39 ± 18.91", "unit": "µg"}, {"measurement": "Ave. Cumulative Amt VCM Released", "setting": "5 mg/ml, slider area 0.5 cm^2, No Q (quinidine study), 0.5 hr", "result": "0.00 ± 0.00", "unit": "µg"}, {"measurement": "Ave. Cumulative Amt VCM Released", "setting": "5 mg/ml, slider area 0.5 cm^2, No Q (quinidine study), 1.0 hr", "result": "1.66 ± 0.43", "unit": "µg"}, {"measurement": "Ave. Cumulative Amt VCM Released", "setting": "5 mg/ml, slider area 0.5 cm^2, No Q (quinidine study), 1.5 hr", "result": "4.34 ± 1.57", "unit": "µg"}, {"measurement": "Ave. Cumulative Amt VCM Released", "setting": "5 mg/ml, slider area 0.5 cm^2, No Q (quinidine study), 2.0 hr", "result": "8.73 ± 2.92", "unit": "µg"}, {"measurement": "Ave. Cumulative Amt VCM Released", "setting": "5 mg/ml, slider area 0.5 cm^2, No Q (quinidine study), 2.5 hr", "result": "14.24 ± 4.56", "unit": "µg"}, {"measurement": "Ave. Cumulative Amt VCM Released", "setting": "10 mg/ml in HEPES buffer without enhancer, 0.5 hr", "result": "0.00 ± 0.0", "unit": "µg"}, {"measurement": "Ave. Cumulative Amt VCM Released", "setting": "10 mg/ml in HEPES buffer without enhancer, 1.0 hr", "result": "2.76 ± 0.69", "unit": "µg"}, {"measurement": "Ave. Cumulative Amt VCM Released", "setting": "10 mg/ml in HEPES buffer without enhancer, 1.5 hr", "result": "6.88 ± 0.98", "unit": "µg"}, {"measurement": "Ave. Cumulative Amt VCM Released", "setting": "10 mg/ml in HEPES buffer without enhancer, 2.0 hr", "result": "12.86 ± 1.23", "unit": "µg"}, {"measurement": "Ave. Cumulative Amt VCM Released", "setting": "10 mg/ml in HEPES buffer without enhancer, 2.5 hr", "result": "20.77 ± 1.90", "unit": "µg"}, {"measurement": "Ave. Cumulative Amt VCM Released", "setting": "25 mg/ml in HEPES buffer without enhancer, 0.5 hr", "result": "0.00 ± 0.0", "unit": "µg"}, {"measurement": "Ave. Cumulative Amt VCM Released", "setting": "25 mg/ml in HEPES buffer without enhancer, 1.0 hr", "result": "2.90 ± 1.82", "unit": "µg"}, {"measurement": "Ave. Cumulative Amt VCM Released", "setting": "25 mg/ml in HEPES buffer without enhancer, 1.5 hr", "result": "7.99 ± 5.71", "unit": "µg"}, {"measurement": "Ave. Cumulative Amt VCM Released", "setting": "25 mg/ml in HEPES buffer without enhancer, 2.0 hr", "result": "21.56 ± 3.84", "unit": "µg"}, {"measurement": "Ave. Cumulative Amt VCM Released", "setting": "25 mg/ml in HEPES buffer without enhancer, 2.5 hr", "result": "50.91 ± 6.58", "unit": "µg"}, {"measurement": "Ave. Cumulative Amt VCM Released", "setting": "50 mg/ml in HEPES buffer without enhancer, 0.5 hr", "result": "0.97 ± 1.37", "unit": "µg"}]}
